Source: US20040092588A1, “Antiseptic for wounds and mucous membranes” (priority 2001, published 2004)

System: human amnion cells (FL cells)
Experiment: neutral red uptake cytotoxicity test
Format: cell-based
Conditions: 24 h at 37° C.
Description: In this test, adherent cultures of human amnion cells (FL cells) are incubated for 24 h at 37° C. with the desired concentration of the test substance in complete MEM culture medium with 5% FBS in a 5% CO2/air atmosphere. The culture medium and test substance are then removed, and new culture medium with neutral red is added. Since vital FL cells take up the dye neutral red in their lysosomes, the intensity of the eluted red coloration is correlated with the proportion of living cells. The intensity is automatically determined by the absorbance at a 540 nm test wavelength/655 nm reference wavelength. Information about the cytotoxic activity of the test substance can be obtained by comparison with a control group that was incubated with phosphate-buffered salt solution (PBS) instead of with the test substance. In addition, this model can be used to test and compare different formulations.
In the present test, different concentrations of octenidine dihydrochloride in PBS and Octenisept® (containing octenidine dihydrochloride and phenoxyethanol) were compared with each other and with PBS. The concentration values refer to the concentration of octenidine dihydrochloride.
The measured absorbances are plotted in FIGS. 1-2. Each measurement is based on 32 individual measurements. Inferential statistical analysis was performed by the U-test. […]

Which “cytotoxic activity relative to comparable concentrations in Octenisept” value does the source give for `CCCCCCCCN=c1ccn(CCCCCCCCCCn2ccc(=NCCCCCCCC)cc2)cc1.Cl.Cl` [octenidine dihydrochloride] here?
The value was “significantly lower”.

And the “absorbance (neutral red, 540 nm/655 nm) relative to Octenisept” value (all tested concentrations, U-test)?
The value was “significantly elevated”.
